PubChem BioAssay (NCI)
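Following 48 hours of exposure in 96-well plates, responses at five concentrations were used to interpolate endpoints linearly. GI50 marks 50% less growth. TGI marks complete inhibition of growth.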

What was measured:
Experiment in all cases: NCI-60 cell line screen, 48 h; in the data active = GI50 below about 0.43 µM; inactive = the rest
ACHN renal = system: ACHN renal
SK-MEL-2 melanoma = system: SK-MEL-2 melanoma
K-562 leukemia = system: K-562 leukemia
MOLT-4 leukemia = system: MOLT-4 leukemia
SN12C renal = system: SN12C renal
UACC-62 melanoma = system: UACC-62 melanoma
HOP-62 NSCLC = system: HOP-62 NSCLC
MDA-MB-231 breast = system: MDA-MB-231 breast
BT-549 breast = system: BT-549 breast
MDA-MB-435 = system: MDA-MB-435

Cc1ccc(/C=C/C(=O)c2ccc([N+](=O)[O-])cc2)cc1
> 100 µM: TGI (ACHN renal) | TGI (SK-MEL-2 melanoma) | TGI (K-562 leukemia) | TGI (MOLT-4 leukemia) | TGI (SN12C renal) | TGI (UACC-62 melanoma) | TGI (HOP-62 NSCLC)

C=C1CCC2C(C)(CO)C(O)CCC2(C)C1C/C=C1/CCOC1=O (configuration not stated)
> 100 µM: TGI (ACHN renal) | TGI (SK-MEL-2 melanoma) | TGI (K-562 leukemia) | TGI (MOLT-4 leukemia) | TGI (SN12C renal) | TGI (UACC-62 melanoma) | TGI (HOP-62 NSCLC)

Cc1cc(NCc2cc(Nc3ccnc4cc(Cl)ccc34)ccc2F)nc(N2CCSCC2)n1
7.07 µM: TGI (MOLT-4 leukemia)
4.71 µM: TGI (SK-MEL-2 melanoma)
3.53 µM: TGI (ACHN renal)
inactive: GI50 (MDA-MB-231 breast) 1.64 µM | GI50 (ACHN renal) 1.7 µM | GI50 (SK-MEL-2 melanoma) 2.15 µM | GI50 (K-562 leukemia) 0.906 µM | GI50 (MOLT-4 leukemia) 2.12 µM | GI50 (HOP-62 NSCLC) 1.89 µM
3.63 µM: TGI (MDA-MB-231 breast)
3.35 µM: TGI (K-562 leukemia)
5.64 µM: TGI (HOP-62 NSCLC)

COc1ccc(N=Nc2c(-c3ccccc3)nn(C(=O)CC(=O)Nc3ccccc3Cl)c2-c2ccccc2)cc1
8.85 µM: TGI (MOLT-4 leukemia)
> 100 µM: TGI (ACHN renal) | TGI (K-562 leukemia) | TGI (SN12C renal) | TGI (UACC-62 melanoma) | TGI (HOP-62 NSCLC)

COc1ccc(/C=C\c2cc(OC)c(OC)c(OC)c2)cc1OCC(=O)Nc1nc2ccccc2s1
active: GI50 (MDA-MB-231 breast) 0.179 µM | GI50 (ACHN renal) 0.107 µM | GI50 (SK-MEL-2 melanoma) 0.187 µM | GI50 (K-562 leukemia) 0.0423 µM | GI50 (BT-549 breast) 0.303 µM | GI50 (MOLT-4 leukemia) 0.366 µM | GI50 (UACC-62 melanoma) 0.0587 µM | GI50 (HOP-62 NSCLC) 0.298 µM
inactive: GI50 (SN12C renal) 0.431 µM
> 100 µM: TGI (MDA-MB-231 breast) | TGI (ACHN renal) | TGI (SK-MEL-2 melanoma) | TGI (K-562 leukemia) | TGI (BT-549 breast) | TGI (MOLT-4 leukemia) | TGI (SN12C renal) | TGI (UACC-62 melanoma) | TGI (HOP-62 NSCLC)

Cc1cccc(C(C)C)c1NC(=O)CCl
> 100 µM: TGI (ACHN renal) | TGI (SK-MEL-2 melanoma) | TGI (K-562 leukemia) | TGI (MOLT-4 leukemia) | TGI (SN12C renal)
63.2 µM: TGI (UACC-62 melanoma)
98.8 µM: TGI (HOP-62 NSCLC)

CC(C)CN1CC(C)C(=O)NC1=O (configuration not stated)
> 100 µM: TGI (ACHN renal) | TGI (SK-MEL-2 melanoma) | TGI (K-562 leukemia) | TGI (MOLT-4 leukemia) | TGI (SN12C renal) | TGI (UACC-62 melanoma) | TGI (HOP-62 NSCLC)

CN(C)C(=S)/N=c1\ss/c(=N\C(=S)N(C)C)n1Cc1ccco1
> 100 µM: TGI (ACHN renal) | TGI (SK-MEL-2 melanoma) | TGI (K-562 leukemia) | TGI (MOLT-4 leukemia) | TGI (SN12C renal) | TGI (UACC-62 melanoma) | TGI (HOP-62 NSCLC)

Fc1cccc(Cl)c1Cn1c(-c2c(F)cccc2Cl)nc2ccccc21
30.8 µM: TGI (SN12C renal)
inactive: GI50 (MDA-MB-231 breast) 13.2 µM | GI50 (ACHN renal) 18.9 µM | GI50 (K-562 leukemia) 10.1 µM | GI50 (BT-549 breast) 25.4 µM | GI50 (MDA-MB-435) 20.1 µM | GI50 (MOLT-4 leukemia) 11.1 µM | GI50 (SN12C renal) 15.7 µM | GI50 (UACC-62 melanoma) 12.8 µM | GI50 (HOP-62 NSCLC) 23.2 µM
29.3 µM: TGI (MDA-MB-231 breast)
61.7 µM: TGI (MDA-MB-435)
41.4 µM: TGI (ACHN renal)
50.6 µM: TGI (HOP-62 NSCLC)
29.8 µM: TGI (UACC-62 melanoma)
53.2 µM: TGI (BT-549 breast)
> 100 µM: TGI (K-562 leukemia) | TGI (MOLT-4 leukemia)

COc1ccc(OC(C)C(=O)O)c2c1CCCC2=O (configuration not stated)
> 100 µM: TGI (ACHN renal) | TGI (SK-MEL-2 melanoma) | TGI (K-562 leukemia) | TGI (MOLT-4 leukemia) | TGI (SN12C renal) | TGI (UACC-62 melanoma) | TGI (HOP-62 NSCLC)

CCOC(=O)C(=O)Nc1ccccc1OCC
> 100 µM: TGI (ACHN renal) | TGI (SK-MEL-2 melanoma) | TGI (K-562 leukemia) | TGI (MOLT-4 leukemia) | TGI (SN12C renal) | TGI (UACC-62 melanoma) | TGI (HOP-62 NSCLC)

CC[C@H]1CN(C)[C@H]2Cc3c([nH]c4ccccc34)C(=O)C[C@H]1C2C(=O)OC (some centres not stated)
> 100 µM: TGI (MDA-MB-231 breast) | TGI (ACHN renal) | TGI (SK-MEL-2 melanoma) | TGI (BT-549 breast) | TGI (MDA-MB-435) | TGI (MOLT-4 leukemia) | TGI (SN12C renal) | TGI (UACC-62 melanoma) | TGI (HOP-62 NSCLC)

OCC(O)COc1c(Cl)cc(Cl)cc1Cl (configuration not stated)
> 66.1 µM: TGI (K-562 leukemia)
> 100 µM: TGI (ACHN renal) | TGI (SK-MEL-2 melanoma) | TGI (SN12C renal) | TGI (UACC-62 melanoma) | TGI (HOP-62 NSCLC)
> 31.6 µM: TGI (MOLT-4 leukemia)

O=C1CCCC(O)=C1SC1=C(O)CCCC1=O
> 100 µM: TGI (SK-MEL-2 melanoma) | TGI (K-562 leukemia) | TGI (MOLT-4 leukemia) | TGI (SN12C renal) | TGI (UACC-62 melanoma)

O=c1ccn(C2(CO)C=C(CO)C(O)C2O)c(=O)[nH]1 (configuration not stated)
> 25.7 µM: TGI (ACHN renal) | TGI (SK-MEL-2 melanoma) | TGI (K-562 leukemia) | TGI (MOLT-4 leukemia) | TGI (SN12C renal) | TGI (UACC-62 melanoma) | TGI (HOP-62 NSCLC)

CCC(C)c1cccc(C)c1NC(=O)C(=O)Cc1nc2ccccc2s1 (configuration not stated)
> 100 µM: TGI (ACHN renal) | TGI (SK-MEL-2 melanoma) | TGI (K-562 leukemia) | TGI (MOLT-4 leukemia) | TGI (SN12C renal) | TGI (UACC-62 melanoma) | TGI (HOP-62 NSCLC)

O=C(/C=C/c1ccccc1O)c1cccc2ccccc12
> 100 µM: TGI (ACHN renal) | TGI (SK-MEL-2 melanoma) | TGI (K-562 leukemia) | TGI (SN12C renal) | TGI (UACC-62 melanoma) | TGI (HOP-62 NSCLC)
> 83.7 µM: TGI (MOLT-4 leukemia)

Nc1c(C(=O)NC23CC4CC(CC(C4)C2)C3)[n+]([O-])c2ccccc2[n+]1[O-]
> 100 µM: TGI (ACHN renal) | TGI (SK-MEL-2 melanoma) | TGI (K-562 leukemia) | TGI (MOLT-4 leukemia) | TGI (SN12C renal) | TGI (UACC-62 melanoma) | TGI (HOP-62 NSCLC)
